Data reported in article PMC11542786, “Isoscopoletin inhibits hepatocellular carcinoma cell proliferation via regulating glycolysis-related proteins” (PLOS ONE, 2024).

Assays:
Experiment in all cases: microscale thermophoresis
Type in all cases: binding
GPI = target: T1, GPI (Homo sapiens, UniProt P06744)
T1 construct: labelled with DyLight 488 for MST

GPD2 = target: T2, GPD2 (Homo sapiens, UniProt P43304)
T2 construct: labelled with DyLight 488 for MST; docking model 1x0v is not the assayed protein
T2 sequence (P43304 43-727): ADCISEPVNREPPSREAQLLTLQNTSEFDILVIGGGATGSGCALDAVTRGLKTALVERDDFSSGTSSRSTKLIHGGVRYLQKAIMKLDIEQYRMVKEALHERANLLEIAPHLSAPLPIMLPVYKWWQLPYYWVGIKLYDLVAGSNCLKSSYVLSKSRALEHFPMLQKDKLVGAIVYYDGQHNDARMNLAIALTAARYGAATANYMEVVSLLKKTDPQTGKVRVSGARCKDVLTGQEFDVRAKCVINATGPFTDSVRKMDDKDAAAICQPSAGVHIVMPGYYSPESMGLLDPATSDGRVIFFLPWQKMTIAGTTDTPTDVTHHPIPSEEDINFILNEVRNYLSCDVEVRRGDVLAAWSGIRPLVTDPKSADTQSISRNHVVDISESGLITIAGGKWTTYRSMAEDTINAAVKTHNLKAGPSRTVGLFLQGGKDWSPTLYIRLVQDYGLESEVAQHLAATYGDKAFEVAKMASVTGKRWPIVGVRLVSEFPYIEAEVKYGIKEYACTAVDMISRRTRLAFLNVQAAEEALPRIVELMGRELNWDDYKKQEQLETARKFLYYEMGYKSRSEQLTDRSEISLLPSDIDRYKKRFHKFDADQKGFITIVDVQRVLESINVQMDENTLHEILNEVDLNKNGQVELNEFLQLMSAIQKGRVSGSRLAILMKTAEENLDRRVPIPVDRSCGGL

PGK2 = target: T3, PGK2 (Homo sapiens, UniProt P07205)
T3 construct: labelled with DyLight 488 for MST; docking model 2paa is not the assayed protein
T3 sequence (P07205 2-417): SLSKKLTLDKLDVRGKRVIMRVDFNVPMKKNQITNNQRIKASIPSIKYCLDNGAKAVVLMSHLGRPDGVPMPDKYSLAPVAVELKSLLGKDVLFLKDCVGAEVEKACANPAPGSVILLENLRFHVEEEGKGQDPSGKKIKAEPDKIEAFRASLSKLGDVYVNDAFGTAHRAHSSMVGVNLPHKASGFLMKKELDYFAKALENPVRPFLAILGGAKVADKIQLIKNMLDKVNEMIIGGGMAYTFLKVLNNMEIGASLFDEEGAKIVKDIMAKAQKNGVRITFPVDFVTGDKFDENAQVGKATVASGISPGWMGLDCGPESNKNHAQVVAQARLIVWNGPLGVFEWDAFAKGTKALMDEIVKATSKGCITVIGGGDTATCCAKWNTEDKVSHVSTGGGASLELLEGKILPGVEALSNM

Hsp90α = target: T4, Hsp90α (Homo sapiens, UniProt P07900)
T4 construct: gene HSP90AA1; labelled with DyLight 488 for MST

A Kd (GPI) of 1.35 mM, a Kd (GPD2) of 13.4 mM and a Kd (PGK2) of 3.22 mM were found for `COc1cc2oc(=O)ccc2cc1O` [Isoscopoletin] in this work. It also gave a Kd (Hsp90α) of 52.2 mM.
